The record followed here is patent publication EP4810052A2, “HCRHR2 SELECTIVE POLYPEPTIDES” (Gubra A/S, priority 2023, dated 2026).

In one series the target is T1, hCRHR2 (Homo sapiens, UniProt Q13324).
T1 sequence (Q13324 1-411): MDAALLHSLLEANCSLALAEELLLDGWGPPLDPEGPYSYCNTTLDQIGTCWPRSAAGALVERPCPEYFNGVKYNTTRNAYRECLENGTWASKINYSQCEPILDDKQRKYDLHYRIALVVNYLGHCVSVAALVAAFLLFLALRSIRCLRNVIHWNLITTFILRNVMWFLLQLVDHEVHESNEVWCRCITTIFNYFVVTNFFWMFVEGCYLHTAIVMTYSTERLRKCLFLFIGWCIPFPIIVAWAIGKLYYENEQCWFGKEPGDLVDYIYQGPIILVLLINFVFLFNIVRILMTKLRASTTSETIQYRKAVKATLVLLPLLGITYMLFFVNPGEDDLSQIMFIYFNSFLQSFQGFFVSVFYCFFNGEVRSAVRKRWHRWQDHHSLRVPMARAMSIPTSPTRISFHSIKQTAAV
Kind of series: HTRF cAMP assay, determination of hCRHR2 potency (peptide libraries 5 conc., purified peptides 11 conc.). It is filed as cell-based. The essentials: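 EC50 derived by variable-slope sigmoid regression of FRET-based cAMP data; cellular cAMP displaced d2-labelled tracer from cryptate anti-cAMP antibody. Stable human CRHR2 CHO-K1 suspension cells, revived from frozen stocks just before the run.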
On the technique in general: Time-resolved FRET reads energy transfer from a long-lived donor to a nearby acceptor.

Series [1] in a line: Thioflavin T fibril formation assay of purified peptides. The class given is physicochemical. Details: key: Amyloid fibril formation detected by an increase in ThT fluorescence was denoted with "Yes"; samples without increasing ThT fluorescence hence not forming amyloid fibrils were denoted "No". How it is done: Thioflavin T fibril formation assay: Peptides were dissolved as 267 µM in 50 mM phosphate buffer pH 7.5 for 2 h at room temperature on a rocking table. The samples were then divided into three replicates of 80 µl/well and mixed with 2 µl/well Thioflavin T (ThT)to a final concentration of 4 µM ThT in a black 384 well microplate with a clear bottom (Greiner #781096). The plate was inserted in a CLARIOstar Plus microplate reader (BMG Labtech) and fibril formation was measured as an increase in fluorescence emission at 480 nm (excitation at 450 nm) during 96 h at 40°C with cycles of 5 min rest and 5 min linearshaking at700 rpm.
Compounds were dissolved to 200 µM (ca 1.0 mg/ml) in 50 mM phosphate buffer with preparation and ThT assay performed as described in the "General procedure for determination of fibril formation of peptides." above. Furthermore, samples were adjusted to pH values as indicated below. Additional co-formulations of compounds with semaglutide were prepared by dissolving compounds to 200 µM in commercially available semaglutide drug product (Ozempic®); these co-formulations were adjusted to pH 7.4.

In a further series the target is T2, hCRHR1 (Homo sapiens, UniProt P34998).
T2 sequence (P34998 24-415): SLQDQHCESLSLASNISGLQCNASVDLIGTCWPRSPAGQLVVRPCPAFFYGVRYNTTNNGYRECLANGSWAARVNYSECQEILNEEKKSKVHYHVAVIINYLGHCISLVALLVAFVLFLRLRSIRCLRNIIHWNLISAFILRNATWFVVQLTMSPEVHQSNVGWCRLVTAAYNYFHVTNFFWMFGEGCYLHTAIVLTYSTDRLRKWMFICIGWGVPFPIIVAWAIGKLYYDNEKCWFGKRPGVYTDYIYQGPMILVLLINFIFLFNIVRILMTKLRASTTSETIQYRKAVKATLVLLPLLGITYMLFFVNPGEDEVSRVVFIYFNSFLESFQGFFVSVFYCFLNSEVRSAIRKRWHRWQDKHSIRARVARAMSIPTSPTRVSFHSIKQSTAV
The experiment in a line: HTRF cAMP assay, determination of hCRHR1 potency (peptide libraries 5 conc., purified peptides 11 conc.). It is filed as cell-based. In outline: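 Cellular cAMP was read by time-resolved FRET between d2-labelled cAMP and cryptate anti-cAMP antibody. The cells were freshly thawed suspension CHO-K1 cells stably expressing human CRHR1.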

The conditions of series [2]: pH 7.5.
Series [3] in a line: Chemical stability of purified peptides (RP-UHPLC main peak purity loss). As to conditions: for Chemical stability at pH 7.5 after 14 days at 40°C (% degradation): pH 7.5, 14 days. The class given is physicochemical. How it is done: Chemical stability was tested at a concentration of approximately of 1.0 mg/ml peptide in the following vehicles: 50 mM phosphate buffer pH 7.5. Dissolved samples were incubated for at least 2 h at room temperature on a rocking table. The main peak purity at time zero (T0) was determined using reversed phase chromatography. The samples were incubated at 40°C for 14 days (T14) and 28 days (T28). The samples were analyzed with reversed phase chromatography and size exclusion chromatography.
Reversed Phase chromatography was performed on a Thermo Dionex Ultimate UHPLC system with UV detection at 215 nm) and equipped with a Kinetex column (1.7 µm, C8, 100 Å, 150 x 2.1 mm (00F-4499-AN)). Analysis was performed by gradient elution with buffer A (0.1% TFA in 95:5 H2O:acetonitrile) and buffer B (0.1% TFA in 5:95 H2O: acetonitrile) at a column temperature of 50 °C (gradient used 25-55%B over 40 min. Flowrate was 0.5 mL/min. The main peak purity was determined from the integrated chromatogram as the area under the main peak relative to the total peak area. The purity loss was calculated as the difference between the T0 and T14 time point and/or as the difference between the T0 and T28 time point.
The chemical stability of selected peptides was evaluated at varying pH's at 40° C over 28 days. Samples were prepared and analysed as described in procedure with the addition of pH adjusting samples to the targets indicated below. As a comparator,r commercially available semaglutide drug product (Ozempic®, Novo Nordisk) was included in the sample set.

Setting [4] is: Table 5, purified peptides, read-out: hCRHR2 EC50.
Where [5] appears, read: Table 5, purified peptides, read-out: hCRHR1 EC50.

Read-outs that look alike come from different tables or passages of the source. Starred links: 1 amine or outer side, 2 acyl side, 3 side chain; linkers in the order of their positions; H or OH if unused. Non-standard residues stand in square brackets, D forms with d. Residues, ends and D or L forms follow the SMILES beside them. Groups on a side chain read outwards from the residue. *: point of attachment. C20 diacid = O=C(O)CCCCCCCCCCCCCCCCCCC(=O)*; γGlu = O=C(O)[C@H](CCC(=O)[*:2])N[*:1]; Nle = CCCC[C@H](N)C(=O)O; AEEA = NCCOCCOCC(=O)O

On to `CCCC[C@H](NC(=O)[C@@H](NC(=O)[C@H](CCC(=O)O)NC(=O)[C@H](C)NC(=O)[C@H](CC(N)=O)NC(=O)[C@H](CCC(=O)O)NC(=O)[C@H](CCCCNC(=O)COCCOCCNC(=O)COCCOCCNC(=O)CC[C@H](NC(=O)CC[C@H](NC(=O)CCCCCCCCCCCCCCCCCCC(=O)O)C(=O)O)C(=O)O)NC(=O)[C@H](C)NC(=O)[C@H](CCC(N)=O)NC(=O)[C@H](CCC(=O)O)NC(=O)[C@H](CCCNC(=N)N)NC(=O)[C@H](C)NC(=O)[C@H](C)NC(=O)[C@H](CCCNC(=N)N)NC(=O)[C@H](C)NC(=O)[C@H](CCCNC(=N)N)NC(=O)[C@H](C)NC(=O)[C@H](CCC(N)=O)NC(=O)[C@H](CO)NC(=O)[C@H](CC(C)C)NC(=O)[C@H](CC(C)C)NC(=O)[C@@H](NC(=O)[C@H](CCC(N)=O)NC(=O)[C@H](CC(C)C)NC(=O)[C@H](CC(C)C)NC(=O)CNC(=O)[C@@H](NC(=O)[C@@H]1CCCN1C(=O)[C@@H](NC(=O)[C@H](CC(=O)O)NC(=O)[C@H](CC(C)C)NC(=O)[C@H](CO)NC(=O)[C@H](CC(C)C)NC(=O)[C@@H](NC(=O)[C@@H](N)[C@@H](C)CC)C(C)C)C(C)C)[C@@H](C)CC)[C@@H](C)CC)[C@@H](C)CC)C(=O)N[C@@H](C)C(=O)N[C@@H](CCC(=O)O)C(=O)N[C@H](C(N)=O)C(C)C` [compound 239] (H-IVLSLDVPIGLLQILLSQARARAAREQAK([AEEA-AEEA-γGlu-γGlu-C20 diacid])ENAEI[Nle]AEV-NH2), for which the “Selectivity ratio (hCRHR1/ hCRHR2)” value at hCRHR2 (Table 5) is listed as above 5556. In addition, the results for the EC50 on hCRHR2 (setting [4]) and on hCRHR1 (setting [5]) were 0.9 nM and above 5000 nM, respectively. Also, the “Fibrillation (pH 7.5)” value in series [1] (pH 7.5) is “No”. Further, the “Solubility pH 7.5, target conc. =10 mg/mL (measured mg/mL)” value in series [2] is on record as 11 mg/mL. The “Chemical stability at pH 7.5 after 14 days at 40°C (% degradation)” value in series [3] (40°C) was -1.9%. Further, in series [3] (pH 7.5, 28 days, 40°C), the “Chemical stability at pH 7.5 after 28 days at 40°C (% degradation)” value is listed as -2.2%.

Turning to `CC[C@H](C)[C@H](NC(=O)[C@H](CCC(=O)O)NC(=O)[C@H](C)NC(=O)[C@H](CC(N)=O)NC(=O)[C@@H](NC(=O)[C@H](CCCCNC(=O)COCCOCCNC(=O)COCCOCCNC(=O)CC[C@H](NC(=O)CC[C@H](NC(=O)CCCCCCCCCCCCCCCCCCC(=O)O)C(=O)O)C(=O)O)NC(=O)[C@H](C)NC(=O)[C@H](CCC(N)=O)NC(=O)[C@H](CCC(=O)O)NC(=O)[C@H](CCCNC(=N)N)NC(=O)[C@H](C)NC(=O)[C@H](C)NC(=O)[C@H](CCCNC(=N)N)NC(=O)[C@H](C)NC(=O)[C@H](CCCNC(=N)N)NC(=O)[C@H](C)NC(=O)[C@H](CCC(N)=O)NC(=O)[C@H](CCC(=O)O)NC(=O)[C@H](CC(C)C)NC(=O)[C@H](CC(C)C)NC(=O)[C@@H](NC(=O)[C@H](CCC(N)=O)NC(=O)[C@H](CC(C)C)NC(=O)[C@H](CC(C)C)NC(=O)CNC(=O)[C@@H](NC(=O)[C@@H]1CCCN1C(=O)[C@@H](NC(=O)[C@H](CC(=O)O)NC(=O)[C@H](CC(C)C)NC(=O)[C@H](CO)NC(=O)[C@H](CC(C)C)NC(=O)[C@@H](NC(=O)[C@@H]1CCCN1)C(C)C)C(C)C)[C@@H](C)CC)[C@@H](C)CC)[C@@H](C)O)C(=O)N[C@@H](CC(C)C)C(=O)N[C@@H](C)C(=O)N[C@@H](CCC(=O)O)C(=O)N[C@H](C(N)=O)C(C)C` [SEQ ID NO: 7] (H-PVLSLDVPIGLLQILLEQARARAAREQAK([AEEA-AEEA-γGlu-γGlu-C20 diacid])TNAEILAEV-NH2), the “Selectivity ratio (hCRHR1/ hCRHR2)” value at hCRHR2 (hCRHR1-EC50/hCRHR2-EC50) is above 2000. For the same molecule, the EC50 is 2.5 nM at hCRHR2 (purified peptides, CHO-K1 cells stably expressing hCRHR2, cAMP HTRF, read-out: hCRHR2 EC50) and above 5000 nM at hCRHR1 (purified peptides, CHO-K1 cells stably expressing hCRHR1, cAMP HTRF, read-out: hCRHR1 EC50). Besides, the “Fibrillation (pH 7.5)” value in series [1] (pH 7.5, ThT assay) is recorded as “No”. In series [2], the “Solubility pH 7.5, target conc. =10 mg/mL (measured mg/mL)” value is on record as 9.8 mg/mL. In series [3] (pH 7.5, 40°C, 28 days, second value of cell), the “Chemical stability at pH 7.5 after 28 days at 40°C (% degradation)” value was -23%.

With `CCCC[C@H](NC(=O)[C@@H](NC(=O)[C@H](CCC(=O)O)NC(=O)[C@H](C)NC(=O)[C@H](CC(N)=O)NC(=O)[C@@H](NC(=O)[C@H](CCCCNC(=O)COCCOCCNC(=O)COCCOCCNC(=O)CC[C@H](NC(=O)CC[C@H](NC(=O)CCCCCCCCCCCCCCCCCCC(=O)O)C(=O)O)C(=O)O)NC(=O)[C@H](C)NC(=O)[C@H](CCC(N)=O)NC(=O)[C@H](CCC(=O)O)NC(=O)[C@H](CCCNC(=N)N)NC(=O)[C@H](C)NC(=O)[C@H](C)NC(=O)[C@H](CCCNC(=N)N)NC(=O)[C@H](C)NC(=O)[C@H](CCCNC(=N)N)NC(=O)[C@H](C)NC(=O)[C@H](CCC(N)=O)NC(=O)[C@H](CO)NC(=O)[C@H](CC(C)C)NC(=O)[C@H](CC(C)C)NC(=O)[C@@H](NC(=O)[C@H](CCC(N)=O)NC(=O)[C@H](CC(C)C)NC(=O)[C@H](CC(C)C)NC(=O)CNC(=O)[C@@H](NC(=O)[C@@H]1CCCN1C(=O)[C@@H](NC(=O)[C@H](CC(=O)O)NC(=O)[C@H](CC(C)C)NC(=O)[C@H](CO)NC(=O)[C@H](CC(C)C)NC(=O)[C@@H](NC(=O)[C@@H](N)[C@@H](C)CC)C(C)C)C(C)C)[C@@H](C)CC)[C@@H](C)CC)[C@@H](C)O)[C@@H](C)CC)C(=O)N[C@@H](C)C(=O)N[C@@H](CCC(=O)O)C(=O)N[C@H](C(N)=O)C(C)C` [compound 83] (H-IVLSLDVPIGLLQILLSQARARAAREQAK([AEEA-AEEA-γGlu-γGlu-C20 diacid])TNAEI[Nle]AEV-NH2), the “Selectivity ratio (hCRHR1/ hCRHR2)” value on hCRHR2 (Table 5) is on record as above 9091. In addition, the EC50 on hCRHR2 (setting [4]) is 0.55 nM; at hCRHR2 (library peptides, matched molecular pairs L vs Nle in position X^38, read-out: Potency hCRHR2 pEC50 (converted)) it was 0.316 nM; on hCRHR1 (setting [5]) it was above 5000 nM; on hCRHR1 (library peptides, matched molecular pairs L vs Nle in position X^38, read-out: Potency hCRHR1 pEC50 (converted)), 7940 nM. In addition, the “Fibrillation (pH 7.5)” value in series [1] (pH 7.5) is recorded as “No”. Also, in series [2], the “Solubility pH 7.5, target conc. =10 mg/mL (measured mg/mL)” value is given as 9.5 mg/mL. For the same molecule, the “Chemical stability at pH 7.5 after 14 days at 40°C (% degradation)” value in series [3] (40°C) is -3.2%. Moreover, the “Chemical stability at pH 7.5 after 28 days at 40°C (% degradation)” value in series [3] (pH 7.5, 28 days, 40°C) was -10%.
